Test [1] concerns Porphyromonas canoris. The test is described as follows: Antibacterial activity against Porphyromonas canoris (ATCC NCTC 12835) at a concentration of 200 ug/mL; Active. Format: functional, organism-based.
Test [2] deals with Corynebacterium sp. The test is described as follows: Antibacterial activity against Corynebacterium sp. (ATCC 68984) at a concentration of 200 ug/mL; Active. It counts as functional, organism-based.
Test [3] relates to Pasteurella sp. Put plainly: Antibacterial activity against Pasteurella sp.(ATCC 67535) at a concentration of 200 ug/mL; Active. It counts as functional, organism-based.
Test [4] relates to Pasteurella multocida. Put plainly: Antibacterial activity against Pasteurella multocida (ATCC 63560) at a concentration of 200 ug/mL; not active. Format: functional, organism-based.
In test [5] the test system is Hoylesella oralis. Put plainly: Antibacterial activity against Bacteroides oralis (ATCC 72708) at a concentration of 200 ug/mL; Active. Format: functional, organism-based.
In test [6] the test system is Bacteroides ovatus. The test is described as follows: Antibacterial activity against Bacteroides ovatus (ATCC 66640) at a concentration of 200 ug/mL; Active. It counts as functional, organism-based.
Test [7] relates to Pasteurella sp. The test is described as follows: Antibacterial activity against Pasteurella sp.(ATCC 71886) at a concentration of 200 ug/mL; not active. It counts as functional, organism-based.
In test [8] the test system is Schaalia meyeri. The test is described as follows: Antibacterial activity against Actinomyces meyeri (ATCC 61789) at a concentration of 200 ug/mL; Active. It counts as functional, organism-based.
In test [9] the test system is Prevotella buccae. Put plainly: Antibacterial activity against Bacteroides buccae (ATCC 67792) at a concentration of 200 ug/mL; not active. Format: functional, organism-based. To be noted: Segatella buccae.
Test [10] concerns Pasteurella multocida. The test is described as follows: Antibacterial activity against Pasteurella multocida (ATCC 61096) at a concentration of 200 ug/mL; not active. Format: functional, organism-based.
The test system of test [11] is Pasteurella sp. The test is described as follows: Antibacterial activity against Pasteurella sp.(ATCC 67777) at a concentration of 200 ug/mL; not active. It counts as functional, organism-based.
The test system of test [12] is Propionibacterium. Put plainly: Antibacterial activity against Propionibacterium sp.(ATCC 72661) at a concentration of 200 ug/mL; Active. Format: functional, organism-based.
Test [13] relates to Porphyromonas canoris. Put plainly: Antibacterial activity against Porphyromonas canoris (ATCC NCTC 12836) at a concentration of 200 ug/mL; Active. Format: functional, organism-based.
For test [14], the system named is Bacteroides uniformis. Put plainly: Antibacterial activity against Bacteroides uniformis (ATCC 62723) at a concentration of 200 ug/mL; not active. It counts as functional, organism-based.
Test [15] deals with Escherichia coli. Put plainly: Antibacterial activity against Escherichia coli (ATCC NCTC 6571) at a concentration of 200 ug/mL; not active. It counts as functional, organism-based.
In test [16] the test system is Pseudoflavonifractor capillosus. The test is described as follows: Antibacterial activity against Bacteroides capillosus (ATCC 60802) at a concentration of 200 ug/mL; not active. It counts as functional, organism-based.
In test [17] the test system is Staphylococcus aureus. Put plainly: Antibacterial activity against Staphylococcus aureus (ATCC NCTC 6571) at a concentration of 200 ug/mL; Active. Format: functional, organism-based.
Test [18] has as its system Actinomyces sp. The test is described as follows: Antibacterial activity against Actinomyces sp.(ATCC 70710) at a concentration of 200 ug/mL; Active. It counts as functional, organism-based.
The subject of test [19] is Porphyromonas gingivalis. Put plainly: Antibacterial activity against Porphyromonas gingivalis sp.(ATCC D23C) at a concentration of 200 ug/mL; Active. It counts as functional, organism-based.
Test [20] concerns Fusobacterium sp. The test is described as follows: Antibacterial activity against Fusobacterium sp.(ATCC 74714) at a concentration of 200 ug/mL; not active. It counts as functional, organism-based.
In test [21] the test system is Pasteurella sp. The test is described as follows: Antibacterial activity against Pasteurella sp.(ATCC 69527) at a concentration of 200 ug/mL; not active. Format: functional, organism-based.
Test [22] deals with Prevotella bivia. The test is described as follows: Antibacterial activity against Bacteroides bivus (ATCC 64362) at a concentration of 200 ug/mL; not active. It counts as functional, organism-based.
Test [23] has as its system Fusobacterium mortiferum. Put plainly: Antibacterial activity against Fusobacterium mortiferum (ATCC 63425) at a concentration of 200 ug/mL; not active. It counts as functional, organism-based.
Test [24] has as its system Pasteurella sp. Put plainly: Minimum inhibitory concentration against Pasteurella sp.(ATCC 67777) using agar method. Format: functional.
For test [25], the system named is Hoylesella oralis. The test is described as follows: Minimum inhibitory concentration against Bacteroides oralis (ATCC 72708) using agar method. It counts as functional.
The test system of test [26] is Bacteroides uniformis. The test is described as follows: Minimum inhibitory concentration against Bacteroides uniformis (ATCC 62723) using agar method. It counts as functional.
Test [27] deals with Fusobacterium mortiferum. Put plainly: Minimum inhibitory concentration against Fusobacterium mortiferum (ATCC 63425) using agar method. It counts as functional.
The test system of test [28] is Escherichia coli. Put plainly: Minimum inhibitory concentration against Escherichia coli (ATCC NCTC 6571) using agar method. Format: functional.
In test [29] the test system is Schaalia meyeri. Put plainly: Minimum inhibitory concentration against Actinomyces meyeri (ATCC 61789) using agar method. It counts as functional.
Test [30] relates to Propionibacterium. Put plainly: Minimum inhibitory concentration against Propionibacterium sp.(ATCC 72661) using agar method. Format: functional.
In test [31] the test system is Pasteurella sp. The test is described as follows: Minimum inhibitory concentration against Pasteurella sp.(ATCC 69527) using agar method. It counts as functional.
Test [32] deals with Actinomyces sp. The test is described as follows: Minimum inhibitory concentration against Actinomyces sp.(ATCC 70710) using agar method. It counts as functional.
Test [33] has as its system Prevotella bivia. The test is described as follows: Minimum inhibitory concentration against Bacteroides bivus (ATCC 64362) using agar method. Format: functional.
The subject of test [34] is Bacteroides ovatus. The test is described as follows: Minimum inhibitory concentration against Bacteroides ovatus (ATCC 66640) using agar method. It counts as functional.
Test [35] concerns Pasteurella multocida. Put plainly: Minimum inhibitory concentration against Pasteurella multocida (ATCC 61096) using agar method. Format: functional.
The subject of test [36] is Fusobacterium sp. Put plainly: Minimum inhibitory concentration against Fusobacterium sp.(ATCC 74714) using agar method. It counts as functional, fusobacterium species.
In test [37] the test system is Porphyromonas gingivalis. Put plainly: Minimum inhibitory concentration against Porphyromonas gingivalis sp.(ATCC D23C) using agar method. Format: functional.
In test [38] the test system is Porphyromonas canoris. Put plainly: Minimum inhibitory concentration against Porphyromonas canoris (ATCC NCTC 12835) using agar method. Format: functional.
Test [39] relates to Prevotella buccae. The test is described as follows: Minimum inhibitory concentration against Bacteroides buccae (ATCC 67792) using agar method. It counts as functional. To be noted: Segatella buccae.
For test [40], the system named is Pasteurella sp. Put plainly: Minimum inhibitory concentration against Pasteurella sp.(ATCC 67535) using agar method. It counts as functional.
Test [41] relates to Pseudoflavonifractor capillosus. Put plainly: Minimum inhibitory concentration against Bacteroides capillosus (ATCC 60802) using agar method. Format: functional.
For test [42], the system named is Pasteurella multocida. The test is described as follows: Minimum inhibitory concentration against Pasteurella multocida (ATCC 63560) using agar method. It counts as functional.
For test [43], the system named is Porphyromonas canoris. Put plainly: Minimum inhibitory concentration against Porphyromonas canoris (ATCC NCTC 12836) using agar method. Format: functional.
Test [44] deals with Staphylococcus aureus. Put plainly: Minimum inhibitory concentration against Staphylococcus aureus (ATCC NCTC 6571) using agar method. It counts as functional.
In test [45] the test system is Corynebacterium sp. The test is described as follows: Minimum inhibitory concentration against Corynebacterium sp. (ATCC 68984) using agar method. Format: functional.
For test [46], the system named is Pasteurella sp. The test is described as follows: Minimum inhibitory concentration against Pasteurella sp.(ATCC 71886) using agar method. Format: functional.

The structures appear in SMILES notation. In brackets after ≈: the same amount, converted by molar mass. Activity calls are given as the source filed them. No cut-off for these calls is given here.

Regarding `CCC[C@H]1OC(=O)CCCCCCCCCCCCCC/C=C/C[C@H](O)[C@H](O)[C@@H](O)[C@H](O)[C@H](O)CNC1=O`, the outcome in [1], in test [2], in test [3], in test [5], in test [6] and in test [8] was Active. Further, the outcome in [12], in [13], in test [17], in [18] and in test [19] was Active. Also, the outcome in test [4], in test [7], in test [9], in [10], in test [11] and in test [14] was inactive. The result in test [15], in test [16], in test [20], in test [21], in test [22] and in [23] was inactive.
`CCC[C@@H]1OC(=O)[C@@H](C)C[C@H](C)CCCCC(=O)CCC[C@@H](CC)/C=C/C=C(\COC)CC[C@@H](O)[C@@H](O)C[C@H](O)CNC1=O`: the MIC was 12.5 µg/mL (≈ 20 µM) in test [24]; above 50 µg/mL in test [25]; above 50 µg/mL in test [26]; 12.5 µg/mL (≈ 20 µM) in test [27]; 6.25 µg/mL (≈ 10 µM) in test [28]; above 50 µg/mL in test [29]. The minimum inhibitory concentration (MIC) in test [30] was above 50 µg/mL; in test [31], 25 µg/mL (≈ 40.1 µM); in [32], above 50 µg/mL; in test [33], above 50 µg/mL; in [34], above 50 µg/mL; in [35], above 50 µg/mL. Also, the MIC in test [36] was above 50 µg/mL; in [37], 25 µg/mL (≈ 40.1 µM); in test [38], 25 µg/mL (≈ 40.1 µM); in test [39] it was 12.5 µg/mL (≈ 20 µM); in [40], 12.5 µg/mL (≈ 20 µM); in [41] it was 25 µg/mL (≈ 40.1 µM). The MIC in test [42] is above 50 µg/mL; in test [43] it was 25 µg/mL (≈ 40.1 µM); in test [44] it was above 50 µg/mL; in test [45] it was above 50 µg/mL; in test [46] it was 12.5 µg/mL (≈ 20 µM).
